Measurements taken from ChEMBL document CHEMBL4507256 (2021).

Key:
[1] = molecular target: Serine/threonine-protein kinase VRK2 (Homo sapiens) (UniProt Q86Y07); details: Compound concentration 1000.0 nM
[2] = molecular target: Cyclin-dependent kinase 13 (Homo sapiens) (UniProt Q14004); details: Compound concentration 1000.0 nM
[3] = molecular target: Mitogen-activated protein kinase kinase kinase 2 (Homo sapiens) (UniProt Q9Y2U5); details: Compound concentration 1000.0 nM
[4] = molecular target: Platelet-derived growth factor receptor beta (Homo sapiens) (UniProt P09619); details: Compound concentration 1000.0 nM
[5] = molecular target: 5-hydroxytryptamine receptor 1B (Homo sapiens) (UniProt P28222); details: Compound concentration 10.0 uM
[6] = molecular target: Phosphatidylinositol 4,5-bisphosphate 3-kinase catalytic subunit delta isoform (Homo sapiens) (UniProt O00329); details: Compound concentration 1000.0 nM
[7] = tested on: Epidermal growth factor receptor (Homo sapiens), P00533 [G719S]; details: Compound concentration 1000.0 nM
[8] = molecular target: Serine/threonine-protein kinase/endoribonuclease IRE1 (Homo sapiens) (UniProt O75460); details: Compound concentration 1000.0 nM
[9] = tested on: Phosphatidylinositol 4,5-bisphosphate 3-kinase catalytic subunit alpha isoform (Homo sapiens), P42336 [E545A]; details: Compound concentration 1000.0 nM
[10] = molecular target: Serine/threonine-protein kinase D2 (Homo sapiens) (UniProt Q9BZL6); details: Compound concentration 1000.0 nM
[11] = molecular target: Mitogen-activated protein kinase 11 (Homo sapiens) (UniProt Q15759); details: Compound concentration 1000.0 nM
[12] = molecular target: Serine/threonine-protein kinase SIK2 (Homo sapiens) (UniProt Q9H0K1); details: Compound concentration 1000.0 nM
[13] = molecular target: Serine/threonine-protein kinase 33 (Homo sapiens) (UniProt Q9BYT3); details: Compound concentration 1000.0 nM
[14] = molecular target: Dual specificity tyrosine-phosphorylation-regulated kinase 2 (Homo sapiens) (UniProt Q92630); details: Compound concentration 1000.0 nM
[15] = molecular target: Death-associated protein kinase 2 (Homo sapiens) (UniProt Q9UIK4); details: Compound concentration 1000.0 nM
[16] = molecular target: Activin receptor type-2A (Homo sapiens) (UniProt P27037); details: Compound concentration 1000.0 nM
[17] = molecular target: Serine/threonine-protein kinase Sgk3 (Homo sapiens) (UniProt Q96BR1); details: Compound concentration 1000.0 nM
[18] = molecular target: Phosphatidylinositol 4,5-bisphosphate 3-kinase catalytic subunit beta isoform (Homo sapiens) (UniProt P42338); details: Compound concentration 1000.0 nM
[19] = molecular target: T1, Muscarinic acetylcholine receptor M5 (Homo sapiens) (UniProt P08912); details: Compound concentration 10.0 uM
T1 sequence (whole entry): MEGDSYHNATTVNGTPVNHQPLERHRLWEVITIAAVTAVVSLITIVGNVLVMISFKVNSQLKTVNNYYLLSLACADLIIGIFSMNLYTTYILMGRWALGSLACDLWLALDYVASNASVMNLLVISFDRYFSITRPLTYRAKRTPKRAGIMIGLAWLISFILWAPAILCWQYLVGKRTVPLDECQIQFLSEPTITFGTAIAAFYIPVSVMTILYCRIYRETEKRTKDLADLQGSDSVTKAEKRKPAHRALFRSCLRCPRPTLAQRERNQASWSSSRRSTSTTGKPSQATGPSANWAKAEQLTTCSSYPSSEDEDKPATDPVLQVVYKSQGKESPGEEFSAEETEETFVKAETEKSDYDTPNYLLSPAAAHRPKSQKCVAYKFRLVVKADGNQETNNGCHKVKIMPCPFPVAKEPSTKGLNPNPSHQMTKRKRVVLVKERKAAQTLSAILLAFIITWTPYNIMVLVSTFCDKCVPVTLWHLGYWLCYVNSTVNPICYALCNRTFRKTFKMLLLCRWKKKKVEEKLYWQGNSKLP

[20] = molecular target: Macrophage colony-stimulating factor 1 receptor (Homo sapiens) (UniProt P07333); details: Compound concentration 1000.0 nM
[21] = molecular target: Alpha-1D adrenergic receptor (Homo sapiens) (UniProt P25100); details: Compound concentration 10.0 uM
[22] = molecular target: Homeodomain-interacting protein kinase 4 (Homo sapiens) (UniProt Q8NE63); details: Compound concentration 1000.0 nM
[23] = tested on: ALK tyrosine kinase receptor (Homo sapiens), Q9UM73 [C1156Y]; details: Compound concentration 1000.0 nM
[24] = molecular target: Myosin light chain kinase family member 4 (Homo sapiens) (UniProt Q86YV6); details: Compound concentration 1000.0 nM
[25] = molecular target: Ephrin type-B receptor 1 (Homo sapiens) (UniProt P54762); details: Compound concentration 1000.0 nM
[26] = molecular target: Serine/threonine-protein kinase N2 (Homo sapiens) (UniProt Q16513); details: Compound concentration 1000.0 nM
[27] = molecular target: Serine/threonine-protein kinase tousled-like 2 (Homo sapiens) (UniProt Q86UE8); details: Compound concentration 1000.0 nM
[28] = molecular target: Death-associated protein kinase 3 (Homo sapiens) (UniProt O43293); details: Compound concentration 1000.0 nM
[29] = molecular target: Mitogen-activated protein kinase kinase kinase 9 (Homo sapiens) (UniProt P80192); details: Compound concentration 1000.0 nM
[30] = molecular target: Uncharacterized serine/threonine-protein kinase SBK3 (Homo sapiens) (UniProt P0C264); details: Compound concentration 1000.0 nM
[31] = molecular target: 5'-AMP-activated protein kinase catalytic subunit alpha-1 (Homo sapiens) (UniProt Q13131); details: Compound concentration 1000.0 nM
[32] = molecular target: Casein kinase I isoform alpha (Homo sapiens) (UniProt P48729); details: Compound concentration 1000.0 nM
[33] = molecular target: Homeodomain-interacting protein kinase 1 (Homo sapiens) (UniProt Q86Z02); details: Compound concentration 1000.0 nM
[34] = molecular target: Insulin-like growth factor 1 receptor (Homo sapiens) (UniProt P08069); details: Compound concentration 1000.0 nM
[35] = tested on: Receptor-type tyrosine-protein kinase FLT3 (Homo sapiens), P36888 [D835V]; details: Compound concentration 1000.0 nM
[36] = molecular target: Serine/threonine-protein kinase MARK2 (Homo sapiens) (UniProt Q7KZI7); details: Compound concentration 1000.0 nM
[37] = tested on: Proto-oncogene tyrosine-protein kinase receptor Ret (Homo sapiens), P07949 [V804L]; details: Compound concentration 1000.0 nM
[38] = tested on: Tyrosine-protein kinase ABL1 (Homo sapiens), P00519 [T315I]; details: Compound concentration 1000.0 nM

Serine/threonine-protein kinase/endoribonuclease IRE1 (Homo sapiens), sequence (O75460 19-977 limits assumed): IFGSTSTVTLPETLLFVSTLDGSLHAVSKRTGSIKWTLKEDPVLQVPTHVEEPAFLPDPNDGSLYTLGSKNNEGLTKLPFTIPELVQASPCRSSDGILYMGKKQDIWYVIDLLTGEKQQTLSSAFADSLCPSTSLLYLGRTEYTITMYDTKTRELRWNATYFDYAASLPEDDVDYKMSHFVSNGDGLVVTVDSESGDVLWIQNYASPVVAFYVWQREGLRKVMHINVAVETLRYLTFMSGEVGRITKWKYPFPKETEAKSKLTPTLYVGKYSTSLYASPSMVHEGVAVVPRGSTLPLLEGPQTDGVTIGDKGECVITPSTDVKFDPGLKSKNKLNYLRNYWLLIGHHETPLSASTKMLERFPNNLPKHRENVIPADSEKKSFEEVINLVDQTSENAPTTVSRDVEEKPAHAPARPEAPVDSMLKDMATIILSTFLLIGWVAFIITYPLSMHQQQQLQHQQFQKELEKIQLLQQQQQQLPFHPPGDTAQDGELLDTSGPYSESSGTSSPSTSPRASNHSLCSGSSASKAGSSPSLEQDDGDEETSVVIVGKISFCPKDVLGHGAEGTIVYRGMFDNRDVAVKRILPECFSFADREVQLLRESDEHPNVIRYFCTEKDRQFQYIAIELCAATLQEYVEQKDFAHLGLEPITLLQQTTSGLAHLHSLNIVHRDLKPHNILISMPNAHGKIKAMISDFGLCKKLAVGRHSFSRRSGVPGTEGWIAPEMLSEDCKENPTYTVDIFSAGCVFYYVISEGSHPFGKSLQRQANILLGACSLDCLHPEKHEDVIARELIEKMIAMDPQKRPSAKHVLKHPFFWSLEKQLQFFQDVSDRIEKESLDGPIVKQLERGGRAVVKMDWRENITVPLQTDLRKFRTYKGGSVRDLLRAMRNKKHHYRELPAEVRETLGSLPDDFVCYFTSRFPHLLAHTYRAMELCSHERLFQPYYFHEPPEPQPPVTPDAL
Serine/threonine-protein kinase N2 (Homo sapiens), sequence (Q16513 whole entry, looked up): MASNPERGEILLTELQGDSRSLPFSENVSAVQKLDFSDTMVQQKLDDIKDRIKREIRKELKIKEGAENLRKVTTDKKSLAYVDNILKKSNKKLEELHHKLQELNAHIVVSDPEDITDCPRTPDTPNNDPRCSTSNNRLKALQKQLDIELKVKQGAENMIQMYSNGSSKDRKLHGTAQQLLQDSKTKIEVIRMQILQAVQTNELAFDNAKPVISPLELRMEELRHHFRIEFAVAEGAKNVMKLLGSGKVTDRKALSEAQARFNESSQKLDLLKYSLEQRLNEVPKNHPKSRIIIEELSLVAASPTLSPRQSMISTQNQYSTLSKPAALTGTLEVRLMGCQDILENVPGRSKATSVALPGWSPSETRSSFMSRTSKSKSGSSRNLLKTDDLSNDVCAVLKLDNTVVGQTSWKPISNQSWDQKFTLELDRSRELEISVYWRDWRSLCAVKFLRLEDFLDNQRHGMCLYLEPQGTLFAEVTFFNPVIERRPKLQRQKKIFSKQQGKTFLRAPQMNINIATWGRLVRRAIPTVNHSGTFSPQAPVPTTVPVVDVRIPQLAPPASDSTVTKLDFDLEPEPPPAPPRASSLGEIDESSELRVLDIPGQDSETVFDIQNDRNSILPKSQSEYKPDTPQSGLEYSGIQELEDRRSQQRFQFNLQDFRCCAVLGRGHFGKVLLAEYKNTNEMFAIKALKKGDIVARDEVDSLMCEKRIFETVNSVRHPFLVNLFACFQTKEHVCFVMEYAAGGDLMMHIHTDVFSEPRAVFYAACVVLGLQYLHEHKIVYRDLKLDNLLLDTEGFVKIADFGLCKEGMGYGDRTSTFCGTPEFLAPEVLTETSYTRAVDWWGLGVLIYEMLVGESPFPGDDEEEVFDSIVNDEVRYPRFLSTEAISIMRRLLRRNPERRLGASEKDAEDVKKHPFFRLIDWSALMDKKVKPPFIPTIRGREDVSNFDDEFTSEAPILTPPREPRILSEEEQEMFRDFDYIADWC
Cyclin-dependent kinase 13 (Homo sapiens), sequence (Q14004 whole entry, looked up): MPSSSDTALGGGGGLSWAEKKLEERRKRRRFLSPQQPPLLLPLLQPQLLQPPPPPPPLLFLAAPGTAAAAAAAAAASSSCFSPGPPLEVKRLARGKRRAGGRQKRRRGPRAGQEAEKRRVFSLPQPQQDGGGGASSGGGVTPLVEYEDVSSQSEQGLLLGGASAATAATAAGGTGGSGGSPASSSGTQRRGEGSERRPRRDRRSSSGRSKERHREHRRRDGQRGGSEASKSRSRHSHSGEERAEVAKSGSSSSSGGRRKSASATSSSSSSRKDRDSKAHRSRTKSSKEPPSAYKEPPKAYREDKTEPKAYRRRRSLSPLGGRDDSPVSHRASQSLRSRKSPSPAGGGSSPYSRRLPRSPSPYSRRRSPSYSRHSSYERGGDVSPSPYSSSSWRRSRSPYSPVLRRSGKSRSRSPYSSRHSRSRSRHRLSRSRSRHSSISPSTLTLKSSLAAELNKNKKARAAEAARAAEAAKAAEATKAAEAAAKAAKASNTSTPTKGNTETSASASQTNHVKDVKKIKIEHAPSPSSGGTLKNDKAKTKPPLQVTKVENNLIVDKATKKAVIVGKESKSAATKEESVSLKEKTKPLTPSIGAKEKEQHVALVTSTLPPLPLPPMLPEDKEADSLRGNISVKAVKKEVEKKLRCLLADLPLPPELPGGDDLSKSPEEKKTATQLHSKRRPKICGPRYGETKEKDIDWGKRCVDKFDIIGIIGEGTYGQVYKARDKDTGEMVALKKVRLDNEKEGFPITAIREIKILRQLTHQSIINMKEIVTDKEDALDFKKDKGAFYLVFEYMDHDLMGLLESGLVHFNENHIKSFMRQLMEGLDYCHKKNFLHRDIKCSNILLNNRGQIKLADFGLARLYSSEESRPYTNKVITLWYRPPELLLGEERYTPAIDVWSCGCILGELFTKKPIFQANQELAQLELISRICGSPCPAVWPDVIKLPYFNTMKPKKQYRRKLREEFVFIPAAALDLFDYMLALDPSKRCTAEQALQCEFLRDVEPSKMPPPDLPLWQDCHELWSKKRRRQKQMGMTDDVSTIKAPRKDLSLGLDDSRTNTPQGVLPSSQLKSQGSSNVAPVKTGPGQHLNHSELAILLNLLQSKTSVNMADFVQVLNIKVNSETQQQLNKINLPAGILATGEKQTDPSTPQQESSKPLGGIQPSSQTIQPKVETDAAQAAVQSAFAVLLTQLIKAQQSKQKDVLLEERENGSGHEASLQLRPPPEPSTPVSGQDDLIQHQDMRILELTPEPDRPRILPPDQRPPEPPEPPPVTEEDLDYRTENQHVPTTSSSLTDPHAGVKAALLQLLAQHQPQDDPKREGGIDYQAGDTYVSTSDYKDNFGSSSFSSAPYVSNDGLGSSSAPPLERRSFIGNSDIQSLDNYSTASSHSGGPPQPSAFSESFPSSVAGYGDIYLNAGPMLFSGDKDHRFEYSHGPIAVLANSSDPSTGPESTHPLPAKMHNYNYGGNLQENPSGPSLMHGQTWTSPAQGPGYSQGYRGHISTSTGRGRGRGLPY
Platelet-derived growth factor receptor beta (Homo sapiens), sequence (P09619 whole entry): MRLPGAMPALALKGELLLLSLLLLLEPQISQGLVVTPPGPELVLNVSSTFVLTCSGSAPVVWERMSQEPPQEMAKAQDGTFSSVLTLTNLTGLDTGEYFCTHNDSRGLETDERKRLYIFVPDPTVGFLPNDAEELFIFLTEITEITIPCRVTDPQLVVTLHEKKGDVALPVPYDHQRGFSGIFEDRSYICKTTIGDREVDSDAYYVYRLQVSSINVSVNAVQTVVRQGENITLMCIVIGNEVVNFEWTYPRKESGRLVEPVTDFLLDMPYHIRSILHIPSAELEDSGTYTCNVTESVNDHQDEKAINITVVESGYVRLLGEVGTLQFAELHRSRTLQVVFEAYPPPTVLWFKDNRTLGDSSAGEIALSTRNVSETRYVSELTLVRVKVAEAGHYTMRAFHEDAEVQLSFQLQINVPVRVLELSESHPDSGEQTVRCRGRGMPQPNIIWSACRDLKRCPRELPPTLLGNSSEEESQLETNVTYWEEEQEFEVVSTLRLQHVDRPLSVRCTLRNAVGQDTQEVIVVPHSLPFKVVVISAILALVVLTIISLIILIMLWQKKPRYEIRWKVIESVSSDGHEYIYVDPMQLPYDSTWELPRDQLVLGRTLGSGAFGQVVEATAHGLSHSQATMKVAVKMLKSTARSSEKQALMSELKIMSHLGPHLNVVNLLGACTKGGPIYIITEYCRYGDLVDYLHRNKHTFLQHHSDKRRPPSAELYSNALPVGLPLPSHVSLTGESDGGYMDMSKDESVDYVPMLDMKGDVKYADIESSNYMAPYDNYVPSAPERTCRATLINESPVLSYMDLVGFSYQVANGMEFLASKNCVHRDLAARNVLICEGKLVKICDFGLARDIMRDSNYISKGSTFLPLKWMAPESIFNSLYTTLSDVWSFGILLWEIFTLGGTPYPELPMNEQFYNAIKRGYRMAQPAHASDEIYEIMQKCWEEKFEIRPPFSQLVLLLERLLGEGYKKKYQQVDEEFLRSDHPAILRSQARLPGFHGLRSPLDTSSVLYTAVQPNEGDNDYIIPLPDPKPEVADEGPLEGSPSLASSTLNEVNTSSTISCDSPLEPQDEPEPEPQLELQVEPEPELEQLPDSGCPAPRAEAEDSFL
Myosin light chain kinase family member 4 (Homo sapiens), sequence (Q86YV6 whole entry): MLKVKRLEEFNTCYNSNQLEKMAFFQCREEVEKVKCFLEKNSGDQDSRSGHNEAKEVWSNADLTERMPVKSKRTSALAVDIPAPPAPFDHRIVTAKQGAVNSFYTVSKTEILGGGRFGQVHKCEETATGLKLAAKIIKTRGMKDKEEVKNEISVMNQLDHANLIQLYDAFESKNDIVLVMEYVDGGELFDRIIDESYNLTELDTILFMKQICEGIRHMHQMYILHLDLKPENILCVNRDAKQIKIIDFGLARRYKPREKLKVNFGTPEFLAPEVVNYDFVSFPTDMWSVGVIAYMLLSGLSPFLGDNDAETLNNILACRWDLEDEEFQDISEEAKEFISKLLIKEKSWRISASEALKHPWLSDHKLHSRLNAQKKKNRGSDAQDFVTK

CCC(=N\O)/C(C)=C/c1ccc(F)cc1 [A-079]
inactive: residual activity [1] 74% | residual activity [2] 95% | residual activity [3] 85% | residual activity [4] 100% | inhibition [5] 7.88% | residual activity [6] 72% | residual activity [7] 67% | residual activity [8] 77% | residual activity [9] 76% | residual activity [10] 99% | residual activity [11] 82% | residual activity [12] 100% | residual activity [13] 100% | residual activity [14] 94% | residual activity [15] 97% | residual activity [16] 100% | residual activity [17] 81% | residual activity [18] 99% | inhibition [19] 6.68% | residual activity [20] 91% | inhibition [21] -4.38% | residual activity [22] 79% | residual activity [23] 77% | residual activity [24] 94% | residual activity [25] 100% | residual activity [26] 80% | residual activity [27] 100% | residual activity [28] 87% | residual activity [29] 77% | residual activity [30] 100% | residual activity [31] 99% | residual activity [32] 74% | residual activity [33] 80% | residual activity [34] 79% | residual activity [35] 100% | residual activity [36] 100% | residual activity [37] 100% | residual activity [38] 87%

CCC(=N\O)/C(C)=C/c1ccc(F)c(C)c1 [A-226]
inactive: residual activity [1] 100% | residual activity [2] 100% | residual activity [3] 100% | residual activity [4] 86% | inhibition [5] -1.04% | residual activity [6] 100% | residual activity [7] 79% | residual activity [8] 90% | residual activity [9] 100% | residual activity [10] 100% | residual activity [11] 82% | residual activity [12] 100% | residual activity [13] 96% | residual activity [14] 87% | residual activity [15] 85% | residual activity [16] 100% | residual activity [17] 100% | residual activity [18] 100% | inhibition [19] 2.77% | residual activity [20] 90% | inhibition [21] -3.74% | residual activity [22] 91% | residual activity [23] 100% | residual activity [24] 99% | residual activity [25] 90% | residual activity [26] 100% | residual activity [27] 100% | residual activity [28] 98% | residual activity [29] 100% | residual activity [30] 100% | residual activity [31] 73% | residual activity [32] 100% | residual activity [33] 97% | residual activity [34] 100% | residual activity [35] 100% | residual activity [36] 100% | residual activity [37] 97% | residual activity [38] 88%
